Measured values published in the NIST ThermoML archive (doi:10.1021/je060271a).

Conditions: 303.15 K, Liquid, Vibrating tube method

CCCCCC(=O)OCC(COC(=O)CCCCC)(COC(=O)CCCCC)COC(=O)CCCCC [pentaerythritol tetrahexanoate]
Conditions	mass density [kg/m3]
5137.3 kPa	991.5
5153 kPa	991.6
5168.7 kPa	991.7
5185 kPa	991.7
5201.1 kPa	991.6
5220.3 kPa	991.6
5236.1 kPa	991.6
5252.7 kPa	991.7
5271.9 kPa	991.8
5288.3 kPa	991.7
5304.7 kPa	991.7
5321.5 kPa	991.6
5341.1 kPa	991.8
5357.3 kPa	991.8
5683.2 kPa	992
5701.2 kPa	992
5722.4 kPa	992
5740.3 kPa	992
5758.4 kPa	992.1
5780 kPa	992.1
5798.2 kPa	992
5816.3 kPa	992.1
5835 kPa	992.1
5853.7 kPa	992.1
5912.7 kPa	992.1
6092.3 kPa	992.3
6130.7 kPa	992.2
6149.9 kPa	992.4
6172.7 kPa	992.3
6191.3 kPa	992.3
6210.7 kPa	992.3
6233.5 kPa	992.3
6252.4 kPa	992.3
6271.5 kPa	992.4
6294.4 kPa	992.3
6313.7 kPa	992.3
6333.6 kPa	992.5
6354.3 kPa	992.4
6373.3 kPa	992.4
6396.3 kPa	992.4
6415.5 kPa	992.5
6434.7 kPa	992.6
6457.8 kPa	992.5
6476.9 kPa	992.5
6496.6 kPa	992.5
6516.3 kPa	992.5
6539.1 kPa	992.5
6558.1 kPa	992.5
6581.1 kPa	992.6
6600.9 kPa	992.6
6621.4 kPa	992.5
6640.4 kPa	992.6
6659.3 kPa	992.6
6681.6 kPa	992.6
6699.9 kPa	992.6
6718.5 kPa	992.7
6740.3 kPa	992.7
6758.3 kPa	992.6
6776.2 kPa	992.7
6797.8 kPa	992.7
6815.4 kPa	992.7
6833.2 kPa	992.7
6854.1 kPa	992.7
6871.8 kPa	992.8
6889.4 kPa	992.6
6907.3 kPa	992.8
6924.8 kPa	992.7
6946.2 kPa	992.8
6963.8 kPa	992.8
6981.6 kPa	992.8
6999.8 kPa	992.8
7021.5 kPa	992.9
7039.5 kPa	992.8
7057.3 kPa	992.9
7079.2 kPa	992.9
7097.5 kPa	992.8
7116 kPa	992.9
7134.1 kPa	992.9
7155.9 kPa	992.9
7174.4 kPa	992.9
7192.5 kPa	993
7214.4 kPa	993
7232.7 kPa	993
7251.4 kPa	992.9
7273.7 kPa	993
7292.3 kPa	993
7310.6 kPa	993
7333.2 kPa	993
7352.4 kPa	993
7371.4 kPa	993.1
7394.2 kPa	993.1
7413.2 kPa	993
7432.5 kPa	993.1
7451.7 kPa	993.1
7474.8 kPa	993.1
7494.2 kPa	993.1
7513.5 kPa	993.1
7533.2 kPa	993.2
7556.5 kPa	993.2
7576.2 kPa	993.2
7596.7 kPa	993.2
7616.7 kPa	993.2
7640.5 kPa	993.3
7660.7 kPa	993.2
7680.6 kPa	993.3
7700.8 kPa	993.4
7724.8 kPa	993.2
7744.8 kPa	993.2
7765.4 kPa	993.3
7785.7 kPa	993.3
7809.9 kPa	993.4
7830.6 kPa	993.4
7851.3 kPa	993.3
7876.2 kPa	993.3
7897.2 kPa	993.3
7917.7 kPa	993.4
7938.5 kPa	993.5
7963.1 kPa	993.4
7984.2 kPa	993.4
8005.2 kPa	993.6
8026.6 kPa	993.4
8051.8 kPa	993.5
8072.9 kPa	993.6
8094.6 kPa	993.3
8120 kPa	993.5
8141.2 kPa	993.6
8163.1 kPa	993.5
8186 kPa	993.6
8208.3 kPa	993.6
8233.8 kPa	993.6
8255.4 kPa	993.6
8277.5 kPa	993.6
8303.5 kPa	993.7
8325.2 kPa	993.6
8347.2 kPa	993.7
8373.2 kPa	993.7
8395.6 kPa	993.7
8417.7 kPa	993.7
8440.3 kPa	993.7
8467.9 kPa	993.8
8491.4 kPa	993.8
8513.6 kPa	993.8
8536.1 kPa	993.9
8563.5 kPa	993.6
